# Patent US8895733B2 (Novartis AG, priority 2010, dated 2014)
# Target: T1, Nav 1.7 (Homo sapiens, UniProt Q15858)
# T1 construct: expressed in transfected cells
# Experiment: Whole-cell voltage clamp electrophysiology, automated patch clamp (marker c in Table of Examples)
# Format: cell-based
# Details: marker c = Automated patch clamp data; read-out: Nav 1.7 activity
# In short: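 A voltage protocol weighted toward inactivated-state block was used to test compounds on stably expressing cells, with pulses from −65 mV holding to −10 mV test and −100 mV. Currents came from whole-cell automated patch-clamp recordings, either IonWorks Quattro or other automated instruments, usually in perforated-patch mode.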
# T1 sequence (Q15858 whole entry): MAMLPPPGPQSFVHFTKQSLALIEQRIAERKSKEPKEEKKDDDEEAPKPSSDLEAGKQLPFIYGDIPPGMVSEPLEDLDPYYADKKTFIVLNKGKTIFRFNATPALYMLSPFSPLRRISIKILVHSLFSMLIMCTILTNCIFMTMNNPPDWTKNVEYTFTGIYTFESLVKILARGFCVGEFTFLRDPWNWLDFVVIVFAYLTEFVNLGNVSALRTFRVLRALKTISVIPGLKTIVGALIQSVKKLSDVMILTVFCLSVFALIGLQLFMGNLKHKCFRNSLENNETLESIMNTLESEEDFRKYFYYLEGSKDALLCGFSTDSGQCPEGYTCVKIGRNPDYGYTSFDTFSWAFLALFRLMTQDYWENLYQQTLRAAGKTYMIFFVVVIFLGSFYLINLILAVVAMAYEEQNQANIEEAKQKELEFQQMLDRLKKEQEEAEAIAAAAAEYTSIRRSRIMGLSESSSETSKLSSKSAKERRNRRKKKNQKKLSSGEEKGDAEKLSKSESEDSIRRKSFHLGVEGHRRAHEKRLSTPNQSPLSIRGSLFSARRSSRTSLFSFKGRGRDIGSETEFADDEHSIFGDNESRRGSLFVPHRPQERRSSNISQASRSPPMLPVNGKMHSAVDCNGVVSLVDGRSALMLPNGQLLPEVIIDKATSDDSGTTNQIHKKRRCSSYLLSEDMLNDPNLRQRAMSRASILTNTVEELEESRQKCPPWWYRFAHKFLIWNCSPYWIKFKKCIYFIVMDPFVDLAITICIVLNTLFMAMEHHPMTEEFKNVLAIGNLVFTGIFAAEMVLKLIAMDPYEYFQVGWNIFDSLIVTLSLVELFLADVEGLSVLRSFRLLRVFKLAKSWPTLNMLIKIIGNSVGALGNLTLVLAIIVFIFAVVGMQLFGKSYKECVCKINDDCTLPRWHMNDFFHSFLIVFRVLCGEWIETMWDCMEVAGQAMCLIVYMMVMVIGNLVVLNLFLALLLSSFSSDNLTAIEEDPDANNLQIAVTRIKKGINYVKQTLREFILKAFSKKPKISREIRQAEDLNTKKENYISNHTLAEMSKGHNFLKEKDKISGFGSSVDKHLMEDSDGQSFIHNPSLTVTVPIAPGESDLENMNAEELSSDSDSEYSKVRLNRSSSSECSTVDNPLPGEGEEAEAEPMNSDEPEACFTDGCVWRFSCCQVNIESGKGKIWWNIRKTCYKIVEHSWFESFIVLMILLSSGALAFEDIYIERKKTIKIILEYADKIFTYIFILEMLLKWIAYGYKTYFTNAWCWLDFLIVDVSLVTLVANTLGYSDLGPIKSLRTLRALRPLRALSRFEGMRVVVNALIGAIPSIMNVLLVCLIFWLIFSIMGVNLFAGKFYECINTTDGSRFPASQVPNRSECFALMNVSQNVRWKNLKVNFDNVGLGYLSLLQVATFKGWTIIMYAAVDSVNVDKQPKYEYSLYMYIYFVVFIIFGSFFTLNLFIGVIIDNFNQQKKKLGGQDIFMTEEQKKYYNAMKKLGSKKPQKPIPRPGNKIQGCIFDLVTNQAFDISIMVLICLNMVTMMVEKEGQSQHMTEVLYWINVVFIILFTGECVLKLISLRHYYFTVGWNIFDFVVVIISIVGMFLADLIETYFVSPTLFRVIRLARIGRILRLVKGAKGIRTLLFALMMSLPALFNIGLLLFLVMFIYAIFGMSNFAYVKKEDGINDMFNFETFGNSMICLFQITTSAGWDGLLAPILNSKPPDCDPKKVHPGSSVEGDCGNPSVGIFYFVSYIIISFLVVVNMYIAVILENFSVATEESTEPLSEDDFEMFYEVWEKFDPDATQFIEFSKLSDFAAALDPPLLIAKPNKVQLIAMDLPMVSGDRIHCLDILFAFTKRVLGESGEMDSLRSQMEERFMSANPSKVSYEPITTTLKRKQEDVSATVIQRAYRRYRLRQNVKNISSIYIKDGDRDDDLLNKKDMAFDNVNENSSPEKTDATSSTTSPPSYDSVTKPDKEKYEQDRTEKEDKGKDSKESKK
row,Structure (SMILES),IC50 [nM]
1,"CN(c1ccccc1)c1nc(N)nc(-c2noc(-c3ccc(C(F)(F)F)nc3)n2)n1 [Example 267, 2-N-methyl-2-N-phenyl-6-{5-[6-(trifluoromethyl)pyridin-3-yl]-1,2,4-oxadiazol-3-yl}-1,3,5-triazine-2,4-diamine]",> 8260
2,CN(c1ccccc1)c1nc(N)nc(-c2noc(-c3ncc(F)cc3F)n2)n1 [Example 281],1810
3,"CN(c1ccccc1)c1nc(N)nc(-c2noc(-c3n[nH]cc3Br)n2)n1 [Example 251, 6-[5-(4-bromo-1H-pyrazol-3-yl)-1,2,4-oxadiazol-3-yl]-2-N-methyl-2-N-phenyl-1,3,5-triazine-2,4-diamine]",2530
4,"CN(c1ccccc1)c1nc(N)nc(-c2noc(-c3ccc(CN4CCOCC4)nc3)n2)n1 [Example 299, 2-N-methyl-6-{5-[6-(morpholin-4-ylmethyl)pyridin-3-yl]-1,2,4-oxadiazol-3-yl}-2-N-phenyl-1,3,5-triazine-2,4-diamine]",1110
5,"Nc1nc(Nc2cccc(F)c2)nc(-c2noc(C(=O)NC3COC3)n2)n1 [Example 250, 3-{4-amino-6-[(3-fluorophenyl)amino]-1,3,5-triazin-2-yl}-N-(oxetan-3-yl)-1,2,4-oxadiazole-5-carboxamide]",9850
6,"CC1CCN(c2nc(-c3nc(N)nc(Nc4ccccc4)n3)no2)CC1 [Example 243, 6-[5-(4-methylpiperidin-1-yl)-1,2,4-oxadiazol-3-yl]-2-N-phenyl-1,3,5-triazine-2,4-diamine]",7950
7,"CC1CCN(c2nc(-c3nc(N)nc(Nc4cccc(F)c4)n3)no2)CC1 [Example 245, 2-N-(3-fluorophenyl)-6-[5-(4-methylpiperidin-1-yl)-1,2,4-oxadiazol-3-yl]-1,3,5-triazine-2,4-diamine]",3090

# Second part, the compound after the results:
row,IC50 [nM],Structure (SMILES)
1,69,"CN(c1nc(N)nc(-c2noc(-c3ncccc3F)n2)n1)c1ccccc1F [Example 475, 2-N-(2-fluorophenyl)-6-[5-(3-fluoropyridin-2-yl)-1,2,4-oxadiazol-3-yl]-2-N-methyl-1,3,5-triazine-2,4-diamine]"
2,570,"CN(C)S(=O)(=O)N1CCC(c2nc(-c3nc(N)nc(Nc4ccccc4)n3)no2)CC1 [Example 517, 4-{3-[4-amino-6-(phenylamino)-1,3,5-triazin-2-yl]-1,2,4-oxadiazol-5-yl}-N,N-dimethylpiperidine-1-sulfonamide]"
3,9020,"Nc1nc(Nc2ccc(F)c(Cl)c2)nc(-c2noc(-c3ccc(OCC(F)(F)F)nc3)n2)n1 [Example 413, 2-N-(3-Chloro-4-fluorophenyl)-6-{5-[6-(2,2,2-trifluoroethoxy)pyridin-3-yl]-1,2,4-oxadiazol-3-yl}-1,3,5-triazine-2,4-diamine]"
4,1860,"CN(c1ccccc1)c1nc(N)nc(-c2noc(-c3ccc(NCC(F)(F)F)nc3)n2)n1 [Example 327, 2-N-Methyl-2-N-phenyl-6-(5-{6-[(2,2,2-trifluoroethyl)amino]pyridin-3-yl}-1,2,4-oxadiazol-3-yl)-1,3,5-triazine-2,4-diamine]"
5,804,"C=Cc1ccc(-c2nc(-c3nc(N)nc(N(C)c4ccccc4)n3)no2)cc1 [Example 305, 6-[5-(4-ethenylphenyl)-1,2,4-oxadiazol-3-yl]-2-N-methyl-2-N-phenyl-1,3,5-triazine-2,4-diamine]"
6,> 5370,"CC(C)S(=O)(=O)N1CCN(c2nc(-c3nc(N)nc(N(C)c4ccccc4)n3)no2)CC1 [Example 504, 2-N-methyl-2-N-phenyl-6-{5-[4-(propane-2-sulfonyl)piperazin-1-yl]-1,2,4-oxadiazol-3-yl}-1,3,5-triazine-2,4-diamine]"
7,7290,"CN(c1ccccc1)c1nc(N)nc(-c2noc(N3CC[C@@H](OCC(F)(F)F)C3)n2)n1 [Example 443, 2-N-methyl-2-N-phenyl-6-{5-[(3R)-3-(2,2,2-trifluoroethoxy)pyrrolidin-1-yl]-1,2,4-oxadiazol-3-yl}-1,3,5-triazine-2,4-diamine]"
8,702,"Nc1nc(Nc2ccccc2)nc(-c2noc(N3C[C@@H]4[C@@H](COCC(F)(F)F)[C@@H]4C3)n2)n1 [Example 390, 2-N-phenyl-6-{5-[6-[(2,2,2-trifluoroethoxy)methyl]-3-azabicyclo[3.1.0]hexan-3-yl]-1,2,4-oxadiazol-3-yl}-1,3,5-triazine-2,4-diamine]"
9,894,"COCCOc1ccc(-c2nc(-c3nc(N)nc(N(C)c4ccccc4)n3)no2)cn1 [Example 329, 6-{5-[6-(2-methoxyethoxy)pyridin-3-yl]-1,2,4-oxadiazol-3-yl}-2-N-methyl-2-N-phenyl-1,3,5-triazine-2,4-diamine]"
10,968,"CN(c1ccccc1)c1nc(N)nc(-c2noc(C3CN(S(=O)(=O)CC(F)(F)F)C3)n2)n1 [Example 310, 2-N-methyl-2-N-phenyl-6-(5-{1-[(2,2,2-trifluoroethane)sulfonyl]azetidin-3-yl}-1,2,4-oxadiazol-3-yl)-1,3,5-triazine-2,4-diamine]"
11,313,"CCOc1cccnc1-c1nc(-c2nc(N)nc(N(C)c3ccccc3)n2)no1 [Example 480, 6-[5-(3-ethoxypyridin-2-yl)-1,2,4-oxadiazol-3-yl]-2-N-methyl-2-N-phenyl-1,3,5-triazine-2,4-diamine]"
12,292,"Nc1nc(Nc2ccccc2)nc(-c2noc(N3C[C@@H]4[C@@H](COC5CCCC5)[C@@H]4C3)n2)n1 [Example 400, 6-{5-[6-[(cyclopentyloxy)methyl]-3-azabicyclo[3.1.0]hexan-3-yl]-1,2,4-oxadiazol-3-yl}-2-N-phenyl-1,3,5-triazine-2,4-diamine]"
13,1900,"CN(c1ccccc1)c1nc(N)nc(-c2noc(-c3ncccc3NC3CC3)n2)n1 [Example 481, 6-{5-[3-(Cyclopropylamino)pyridin-2-yl]-1,2,4-oxadiazol-3-yl}-2-N-methyl-2-N-phenyl-1,3,5-triazine-2,4-diamine]"

# Same assay, conditions: marker c: Automated patch clamp data; read-out: Nav 1.7 activity
row,IC50 [nM],Structure (SMILES)
1,1130,"CN(c1cccc(F)c1)c1nc(N)nc(-c2noc(-c3cccs3)n2)n1 [Example 99, N-(3-Fluoro-phenyl)-N-methyl-6-(5-thiophen-2-yl-[1,2,4]oxadiazol-3-yl)-[1,3,5]triazine-2,4-diamine]"
2,9040,"CN(c1ccccc1)c1nc(N)nc(-c2noc(C3CCN(C(=O)CC(F)(F)F)CC3)n2)n1 [Example 164, 1-[4-(3-{4-amino-6-[methyl(phenyl)amino]-1,3,5-triazin-2-yl}-1,2,4-oxadiazol-5-yl)piperidin-1-yl]-3,3,3-trifluoropropan-1-one]"
3,2720,"Nc1nc(Nc2ccccc2)nc(-c2noc(-c3cc[nH]n3)n2)n1 [Example 40, N-Phenyl-6-[5-(1H-pyrazol-3-yl)-[1,2,4]oxadiazol-3-yl]-[1,3,5]triazine-2,4-diamine]"
4,144,"COc1cccc(F)c1-c1nc(-c2nc(N)nc(N(C)c3cccc(C)c3)n2)no1 [Example 185, 6-[5-(2-fluoro-6-methoxyphenyl)-1,2,4-oxadiazol-3-yl]-2-N-methyl-2-N-(3-methylphenyl)-1,3,5-triazine-2,4-diamine]"
5,261,"CN(c1ccccc1)c1nc(N)nc(-c2noc(-c3ccc(OC4CCOC4)nc3)n2)n1 (stereo not shown) [Example 141, 2-N-methyl-6-{5-[6-(oxolan-3-yloxy)pyridin-3-yl]-1,2,4-oxadiazol-3-yl}-2-N-phenyl-1,3,5-triazine-2,4-diamine]"
6,477,"COCCNc1nc(Nc2ccccc2)nc(-c2noc(-c3ccc(OCC(F)(F)F)nc3)n2)n1 [Example 157, 2-N-(2-methoxyethyl)-4-N-phenyl-6-{5-[6-(2,2,2-trifluoroethoxy)pyridin-3-yl]-1,2,4-oxadiazol-3-yl}-1,3,5-triazine-2,4-diamine]"
7,8670,"CN(c1ccccc1)c1nc(N)nc(-c2noc(C3CCN(C(=O)C(F)(F)F)CC3)n2)n1 [Example 159, 1-[4-(3-{4-Amino-6-[methyl(phenyl)amino]-1,3,5-triazin-2-yl}-1,2,4-oxadiazol-5-yl)piperidin-1-yl]-2,2,2-trifluoroethan-1-one]"
8,206,"CN(c1cccc(Cl)c1)c1nc(N)nc(-c2noc(-c3cccs3)n2)n1 [Example 101, N-(3-Chlorophenyl)-N-methyl-6-(5-thiophen-2-yl-[1,2,4]oxadiazol-3-yl)-[1,3,5]triazine-2,4-diamine]"
9,106,"Nc1nc(Nc2ccccc2F)nc(-c2noc(-c3ccc(OCC4CC4)nc3)n2)n1 [Example 138, 6-{5-[6-(cyclopropylmethoxy)pyridin-3-yl]-1,2,4-oxadiazol-3-yl}-2-N-(2-fluorophenyl)-1,3,5-thazine-2,4-diamine]"
10,83,"CCN(c1ccccc1)c1nc(N)nc(-c2noc(-c3ccc(F)cc3Cl)n2)n1 [Example 193, 6-[5-(2-chloro-4-fluorophenyl)-1,2,4-oxadiazol-3-yl]-2-N-ethyl-2-N-phenyl-1,3,5-triazine-2,4-diamine]"
11,142,"CC(C)Oc1ccc(-c2nc(-c3nc(N)nc(N(C)c4ccccc4)n3)no2)cn1 [Example 149, 2-N-methyl-2-N-phenyl-6-{5-[6-(propan-2-yloxy)pyridin-3-yl]-1,2,4-oxadiazol-3-yl}-1,3,5-triazine-2,4-diamine]"
12,1190,"CNC(=O)c1ccc(-c2nc(-c3nc(N)nc(N(C)c4ccccc4)n3)no2)s1 [Example 75, 5-{3-[4-Amino-6-(methyl-phenyl-amino)-[1,3,5]triazin-2-yl]-[1,2,4]oxadiazol-5-yl}-thiophene-2-carboxylic acid methylamide]"
13,1410,"COc1ccsc1-c1nc(-c2nc(N)nc(N(C)c3ccccc3)n2)no1 [Example 74, 6-[5-(3-Methoxy-thiophen-2-yl)-[1,2,4]oxadiazol-3-yl]-N-methyl-N-phenyl-[1,3,5]triazine-2,4-diamine]"
14,1030,"CN(c1ccccc1)c1nc(N)nc(-c2noc(C3CCN(S(=O)(=O)CC(F)(F)F)CC3)n2)n1 [Example 169, 2-N-methyl-2-N-phenyl-6-(5-{1-[(2,2,2-trifluoroethane)sulfonyl]piperidin-4-yl}-1,2,4-oxadiazol-3-yl)-1,3,5-triazine-2,4-diamine]"
